Measured values from patent US6864249B2, “Piperidine and azetidine thrombin inhibitors” (LG Life Sciences, Ltd., priority 1998, dated 2005).
Counter-ions that a name gives are not always drawn. Like-named read-outs stand apart in the source and are kept apart here.

Columns and labels:
thrombus formation = assay: Rat venous thrombosis model (thromboplastin infusion and vena cava stasis, clot weight); type: in vivo, Male Sprague-Dawley rats; settings: 1 mg/kg iv bolus 5 min before thromboplastin infusion
Experimental: In vivo Studies of the Compounds Claimed Herein Were Conducted Using the Following Procedure
Male Sprague-Dawley rats (body weights 250-300 g, 3-4/group) were anaesthetized by intraperitoneal injection with urethane solution (1.25 g/kg). […] The venae iliolumbar and spermatica were ligated with a silk thread. Thrombus formation was initiated by infusion of a thromboplastin preparation (Simplastin®) using an infusion pump (Model 100, IITC Life Science, USA) via the left femoral vein at 0.5 mL/kg/min. Simplastin® (Organon Teknika, USA) was reconstituted with 4 mL of distilled water and then given diluted at 1:2.5 in distilled water. At the start of infusion for 30 seconds, the vena cava was ligatured below the left renal vein. After the end of infusion, vena cava was also ligatured above the iliac veins 16 mm apart from upper ligature. After 15 min of stasis, the thrombus formed inside the vessel was carefully removed and weighed. Before wighing, the excess blood was removed by blotting the wet clot on the wet Whatman filter paper (see, Millet, J.; Theveniaux, J.; Brown, N. L. Thromb. Haemost. 1992, 67, 176).
Saline (control) or test compounds (1 mg/kg) were injected as a bolus via the femoral vein starting 5 min before the thromboplastin infusion. Bolus injection volume was 0.5 mL/kg. Antithrombotic activity was expressed as a percentage where: Antithrombotic activity (%)=100×(A−B)/A • A=mean clot weight of control group • B=mean clot weight of test compound group

[1] = Pharmacokinetic study for oral bioavailability in rats; type: in vivo, Male Sprague-Dawley rats; settings: oral dosing in rats, 30 mg/kg
Experimental: Pharmacokinetic Studies for Determining Oral Bioavailability
Male Sprague-Dawley rats (250-300 g) were restrained individually in a surgical plate (Dae Jong Instrument Company, Seoul, Korea) as supine position. The femoral artery and the femoral vein (iv only) of rats were cannulated with polyethylene tubing (PE-50, Clay Adams, Parsippany, N.J., USA) under light ether anesthesia. After complete recovery from anesthesia, rats were given 30 mg/kg of test compound dissolved in distilled water via oral gavage or given 10 mg/kg via the femoral vein for intravenous (iv) study. Blood samples (0.25 mL) were collected from the femoral artery at 0 (for control), 1 (iv only), 5, 15, 30, 60, 90 (iv only), 120, 180, and 240 min after dosing.
Blood samples were taken into heparinized tube (25 U/mL), deproteinized with 2 volumes of methanol, and centrifuged. The resulting supernatant (60 μL) was analyzed by HPLC eluting with a mixture of 0.1% trifluoroacetic acid aqueous solution and acetonitrile with a ratio of 81% to 19%. Plasma concentration of test compound was recorded and used to calculate the pharmacokinetic parameters: maximum plasma concentration of test compound (Cmax), time of maximum plasma concentration (Tmax) area under the curve (AUC), and fraction of test compound absorbed (F).
Table 2 illustrates the pharmacokinetic results for some exemplary compounds of invention obtained upon oral dosing in rats.

[2] = target: T1, Thrombin prepared from human plasma (Homo sapiens, UniProt P00734); assay: In vitro enzyme assay for thrombin inhibition constants (Chromozym TH substrate, Dixon plot); type: biochemical; settings: pH 7.8, room temperature
T1 construct: Thrombin used in this test was prepared from human plasma; from tissue; host or cells: human plasma
Experimental: In vitro Enzyme Assays for Determining Inhibition Constants
The activity of thrombin was measured spectrophotometrically using tosyl-Gly-Pro-Arg-p-nitroanilide acetate (Chromozym TH, Boehringer Mannheim) as a substrate. […] Each compound was dissolved in DMSO to make a 1 mM stock solution and dilutions were made thereof with assay buffer (0.1 M Tris HCl, 0.15 M NaCl, 0.1% polyethylene glycol 8000, pH 7.8). Different concentrations of inhibitor were mixed with […] of thrombin in 0.8 mL of the buffer. The mixture was incubated for 10 min at room temperature before adding 0.2 mL of the substrate to a final concentration of 20 μM. […] A graph for the reciprocal value of initial velocity to the inhibitor concentration was derived from progress curves by fitting the data using a linear regression program.

[3] = male, Sprague-Dawley, rat, plasma
[4] = male, Sprague-Dawley, rat, plasma, read-out: Cmax

Structure (SMILES)	Antithrombotic activity (inhibition of thrombus formation) (thrombus formation) [%]	Tmax [1, 3] [min]	AUC ([1]; male, Sprague-Dawley, rat, plasma, read-out: AUC (converted)) [ng·h/mL]	Cmax [1] [ng/mL]	Ki [2] [nM]	Cmax [1, 4] [ng/mL]	AUC [1] [ng·h/mL]
N=C(N)c1ccc(CNC(=O)[C@@H]2CCCN2C(=O)[C@H](NS(N)(=O)=O)C(c2ccccc2)c2ccccc2)s1 [Example 1, N-aminosulfonyl-D-diphenylalanyl-L-prolyl-[(5-amidino-2-thienyl)methyl]amide.TFA]	100	60	4220	2200			
CS(=O)(=O)N[C@@H](C(=O)N1CCC[C@H]1C(=O)NCc1ccc(C(=N)N)s1)C(c1ccccc1)c1ccccc1 [Example 3, N-methylsulfonyl-D-diphenylalanyl-L-prolyl-[(5-amidino-2-thienyl)methyl]amide.TFA]	100				0.004		
N=C(N)c1csc(CNC(=O)[C@@H]2CCCN2C(=O)[C@H](NS(N)(=O)=O)C(c2ccccc2)c2ccccc2)c1 [Example 11, N-aminosulfonyl-D-diphenylalanyl-L-prolyl-[(4-amidino-2-thienyl)methyl]amide.TFA]	100	45			0.022	2100	4230
N=C(N)c1cc(CNC(=O)[C@@H]2CCCN2C(=O)[C@H](NS(N)(=O)=O)C(c2ccccc2)c2ccccc2)cs1 [Example 15, N-aminosulfonyl-D-diphenylalanyl-L-prolyl-[(5-amidino-3-thienyl)methyl]amide.TFA]	100				0.056		
COC(=O)N[C@@H](C(=O)N1CCC[C@H]1C(=O)NCc1csc(C(=N)N)c1)C(c1ccccc1)c1ccccc1 [Example 19, N-methoxycarbonyl-D-diphenylalanyl-L-prolyl-[(5-amidino-3-thienyl)methyl]amide.TFA]	100	80			0.06	5200	21620
N=C(N)c1ccc(CNC(=O)[C@@H]2CCCN2C(=O)[C@H](NCC(=O)O)C(c2ccccc2)c2ccccc2)s1 [Example 29, N-carboxymethyl-D-diphenylalanyl-L-prolyl-[(5-amidino-2-thienyl)methyl]amide.2TFA]	100	15		9500	0.015		23170
N=C(N)c1ccc(CNC(=O)[C@@H]2CCCN2C(=O)[C@H](NCCC(=O)O)C(c2ccccc2)c2ccccc2)s1 [Example 41, N-(2-carboxyethyl)-D-diphenylalanyl-L-prolyl-[(5-amidino-2-thienyl)methyl]amide.2TFA]	100	20		4900	0.011		8380
